In patent US5089623A, “Certain imidate insecticides” (Imperial Chemical Industries Plc, priority 1990, dated 1992):

How the values were obtained:
Assay type in all cases: in vivo
[1] = system: Cabbage Looper [Trichoplusia ni (Hubner)]; assay: Cabbage looper test (CL); conditions: second-instar larvae, 3-5 days, percent in solution
[2] = system: Housefly [Musca domestica]; assay: Housefly insecticidal test (HF); conditions: per 25 female houseflies, 48 hours
[3] = system: Maize weevil [Sitophilus Zeamais (Motschulsky)]; assay: Maize weevil test (MW); conditions: adult weevils, treated corn seeds, 48 hours, percent in solution
Procedure, shortened: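 Adult weevils (10) were placed with four corn seeds that had been dipped 2-3 s in compound dissolved in 50:50 acetone:water, then dried, and held at about 25° C. Mortality was scored at 48 h. LC50 was taken from dosage-mortality curves and expressed as percent compound in solution, from a 0.01% top concentration.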

[4] = system: Aster Leafhopper [Macrosteles fascifrens (Stal)]; assay: Aster leafhopper test (LH); conditions: adults/nymphs, 48 hours, percent in solution
[5] = system: Tobacco Budworm [Heliothis virescens (Fabricius)] eggs; assay: Tobacco budworm egg test (TBW-E); conditions: percent in solution

Structure (SMILES)	LC50 CL [1] [%]	LC50 HF [2] [µg]	LC50 MW [3] [%]	LC50 LH [4] [%]	LC50 TBW E [5] [%]
CC(C)C(=Nc1ccccc1)OCc1cccc(Oc2ccccc2)c1 [Compound 43]	0.018	7	> 0.01	> 0.05	0.05
Fc1ccc(N=C(OCc2cccc(Oc3ccccc3)c2)C(F)F)cc1 [Compound 50]	0.02	43	> 0.01	> 0.05	> 0.05
CC(C)C(=Nc1ccccc1C(F)(F)F)OCc1cccc(Oc2ccccc2)c1 [Compound 72]	0.08	> 100	> 0.01	> 0.05	> 0.1
CCS(=O)(=O)c1ccc(N=C(OCc2cccc(Oc3ccccc3)c2)C(C)C)cc1Cl [Compound 112]	0.025	> 100	> 0.01	> 0.05	> 0.1
Fc1ccc(N=C(OCc2cccc(Oc3ccccc3)c2)C(F)(F)C(F)(F)F)cc1Cl [Compound 117]	0.006	55	> 0.01	0.0003	> 0.1
CC(C)C(=Nc1ccc(F)c(Cl)c1)OCc1cccc(Oc2ccccc2F)c1 [Compound 119]	0.0007	27	> 0.01	0.0008	0.048
CC1(C)C(C(=Nc2ccc(F)c(Cl)c2)OCc2cccc(Oc3ccccc3)c2)C1(C)C [Compound 124]	0.01	17	> 0.01	> 0.05	> 0.1
CC(C)C(=Nc1cccc(Br)c1)OCc1cccc(Oc2ccccc2)c1 [Compound 128]	0.005	4.5	> 0.01	0.003	0.037
CC(C)C(=Nc1ccccc1Br)OCc1cccc(Oc2ccccc2)c1 [Compound 132]	0.025	65	> 0.01	> 0.05	> 0.1
CSc1ccc(N=C(OCc2cccc(Oc3ccccc3)c2)C(C)C)cc1 [Compound 142]	0.005	15	> 0.01	> 0.05	0.1
COc1cccc(N=C(OCc2cccc(Oc3ccccc3)c2)C(C)C)c1 [Compound 143]	0.002	10	> 0.01	0.006	< 0.1
COC(=O)c1ccc(N=C(OCc2cccc(Oc3ccccc3)c2)C(C)C)cc1 [Compound 151]	0.009	38	> 0.01	> 0.05	> 0.1
CC(C)C(=Nc1ccc(C(C)(C)C)cc1)OCc1cccc(Oc2ccccc2)c1 [Compound 153]	0.004	> 100	> 0.01	0.0005	0.1
Cc1cccc(N=C(OCc2cccc(Oc3ccccc3)c2)C(C)C)c1 [Compound 155]	0.004	9	> 0.01	> 0.05	0.06
Cc1ccc(N=C(OCc2cccc(Oc3ccccc3)c2)C(C)C)cc1 [Compound 156]	0.004	10	> 0.01	> 0.05	0.05
COc1ccc(N=C(OCc2cccc(Oc3ccccc3)c2)C(C)C)cc1 [Compound 160]	0.005	7	> 0.01	0.05	0.09
CC(C)C(=Nc1ccc(C#N)cc1)OCc1cccc(Oc2ccccc2)c1 [Compound 172]	0.002	5	> 0.01	> 0.05	0.04
c1ccc(Oc2cccc(COC(=Nc3ccc4c(c3)OCO4)C3CC3)c2)cc1 [Compound 177]	0.002	13	0.01	> 0.05	> 0.1
CCC(=Nc1ccc2c(c1)OCO2)OCc1cccc(Oc2ccccc2)c1 [Compound 178]	0.004	6	> 0.01	> 0.05	> 0.1

Structure (SMILES)	LC50 CL [1] [%]	LC50 HF [2] [µg]	LC50 MW [3] [%]	LC50 LH [4] [%]	LC50 TBW E [5] [%]
CC(C)C(=Nc1ccc(-c2ccccc2)cc1)OCc1cccc(Oc2ccccc2)c1 [Compound 186]	0.008	> 100	> 0.01	> 0.05	> 0.1
CC(C)C(=Nc1ccc(Cl)cc1)OCc1cccc(Oc2ccc(F)cc2)c1 [Compound 189]	0.00027	17	> 0.01	0.002	0.07
CC(C)C(=Nc1ccc(Cl)c(C(F)(F)F)c1)OCc1cccc(Oc2ccc(F)cc2)c1 [Compound 193]	0.00075	100	> 0.01	0.001	> 0.1
CC(C)C(=Nc1ccc(F)c(Cl)c1)OCc1cccc(Oc2ccc(F)c(F)c2)c1 [Compound 217]	0.00006	8	0.0084	> 0.05	0.015
CC(C)C(=Nc1ccc2c(c1)OCO2)OCc1cccc(Oc2ccc(Cl)cc2)c1 [Compound 240]	0.0003	14	> 0.01	> 0.05	0.04
CC(C)C(=Nc1cccc(I)c1)OCc1cccc(Oc2ccc(F)cc2)c1 [Compound 255]	0.00017	16	> 0.01	0.0005	0.075
CSc1ccc(Oc2cccc(COC(=Nc3ccc(F)c(Cl)c3)C(C)C)c2)cc1 [Compound 256]	0.007	> 100	> 0.01	> 0.05	0.1
CC(C)C(=Nc1ccc(F)cc1)OCc1cccc(Oc2ccc(Br)cc2)c1 [Compound 259]	0.0003	15	> 0.01	> 0.05	0.05
CC(C)C(=Nc1ccc(F)c([N+](=O)[O-])c1)OCc1cccc(Oc2ccccc2)c1 [Compound 293]	0.0045	19	> 0.01	> 0.05	> 0.1
CC(C)(F)C(=Nc1ccc(F)c(Cl)c1)OCc1cccc(Oc2ccc(F)cc2F)c1 [Compound 315]	0.002	> 100	> 0.01	> 0.05	> 0.1
CC(C)(F)C(=Nc1ccc(F)c(Cl)c1)OCc1cc(Oc2ccc(F)cc2)ccc1F [Compound 316]	0.0015	100	> 0.01	> 0.05	> 0.1
CC(C)C(=Nc1cccc(C(C)(C)C)c1)OCc1cccc(Oc2ccc(F)cc2)c1 [Compound 350]	0.0045	> 100	> 0.01	> 0.05	> 0.1
CC(C)C(=Nc1ccc(Br)cc1F)OCc1cccc(Oc2ccc(F)cc2)c1 [Compound 351]	0.0007	26	> 0.01	> 0.05	> 0.1
CSc1ccc(N=C(OCc2ccc(F)c(Oc3ccccc3)c2)C(C)C)cc1 [Compound 353]	> 0.1	< 100	> 0.01	> 0.05	> 0.1
Cc1ccc(N=C(OCc2ccc(F)c(Oc3ccccc3)c2)C(C)C)cc1F [Compound 354]	> 0.1	< 100	0.0068	< 0.05	0.018
Cc1ccc(N=C(OCc2ccc(F)c(Oc3ccc(F)cc3)c2)C(C)C)cc1F [Compound 355]	> 0.1	< 100	> 0.01	< 0.05	> 0.1
Cc1ccc(N=C(OCc2ccc(F)c(Oc3ccccc3)c2)C(C)C)cc1Cl [Compound 356]	> 0.1	< 100	> 0.01	< 0.05	0.025
Cc1ccc(N=C(OCc2ccc(F)c(Oc3ccc(F)cc3)c2)C(C)C)cc1Cl [Compound 357]	> 0.1	< 100	0.01	< 0.05	> 0.1
Cc1cc(N=C(OCc2ccc(F)c(Oc3ccccc3)c2)C(C)C)ccc1Br [Compound 358]	> 0.1	< 100	> 0.01	< 0.05	> 0.1
